Source: patent US5137892A, “Quinoline, naphthyridine and pyridobenzoxazine derivatives” (Abbott Laboratories, priority 1990, dated 1992)
≈ marks a conversion by molar mass, not a printed value.

Key:
Assay type in all cases: cell-based
[1] = tested on: Enterobacter aerogenes ATCC 13048; assay: In Vitro Antibacterial Activity, agar dilution MIC; details: E. aerogenes ATCC 13048; BHI agar dilution, 20-24 hours; unit assumed
Protocol: (§1) The activity of the compounds of the present invention was tested against a wide variety of bacteria using standard assay procedures. Minimum inhibitory concentrations (MICs) were determined by the agar dilution method, described below, using Brain Heart Infusion agar.
(§2) Twelve petri dishes were prepared, each containing successive aqueous 2-fold dilutions of the test compounds mixed with 10 mL of sterilized Brain Heart Infusion (BHI) agar. Each plate was inoculated with 100-fold (or 10-fold, for slow-growing strains such as Micrococcus and Streptococcus) dilutions of up to 32 different microorganisms using a Steers replicator block calibrated to deliver approximately 10^4 colony forming units (CFUs). The inoculated plates were incubated at about 35°-37° C. for approximately 20-24 hours. In addition, a control plate, using BHI agar containing no test compound, was prepared and incubated at the beginning and at the end of each test. Ciprofloxacin was used as the reference antibiotic.
(§3) The MIC was defined as the lowest concentration of test compound yielding no growth (a slight haze or sparsely isolated colonies at the inoculum spot as compared to the growth control contaning no test compound.

[2] = tested on: Staphylococcus epidermidis 3519; assay: In Vitro Antibacterial Activity, agar dilution MIC; details: S. epidermidis 3519; BHI agar dilution, 20-24 hours; unit assumed
Protocol: as §1, §2, §3

[3] = tested on: Streptococcus pyogenes 2548 INDUC; assay: In Vitro Antibacterial Activity, agar dilution MIC; details: S. pyogenes 2548 INDUC; BHI agar dilution, 20-24 hours; unit assumed
Protocol: as §1, §2, §3

Escherichia coli JUHL = assay: In Vitro Antibacterial Activity, agar dilution MIC; details: E. coli JUHL; BHI agar dilution, 20-24 hours; unit assumed
Protocol: as §1, §2, §3

[4] = tested on: Staphylococcus aureus NCTC 10649; assay: In Vitro Antibacterial Activity, agar dilution MIC; details: S. aureus NCTC 10649; BHI agar dilution, 20-24 hours; unit assumed
Protocol: as §1, §2, §3

Escherichia coli KNK 437 = assay: In Vitro Antibacterial Activity, agar dilution MIC; details: E. coli KNK 437; BHI agar dilution, 20-24 hours; unit assumed
Protocol: as §1, §2, §3

[5] = tested on: Staphylococcus aureus 642A; assay: In Vitro Antibacterial Activity, agar dilution MIC; details: S. aureus 642A; BHI agar dilution, 20-24 hours; unit assumed
Protocol: as §1, §2, §3

Escherichia coli DC-2 = assay: In Vitro Antibacterial Activity, agar dilution MIC; details: E. coli DC-2; BHI agar dilution, 20-24 hours; unit assumed
Protocol: as §1, §2, §3

[6] = tested on: Pseudomonas aeruginosa A5007; assay: In Vitro Antibacterial Activity, agar dilution MIC; details: P. aeruginosa A5007; BHI agar dilution, 20-24 hours; unit assumed
Protocol: as §1, §2, §3

[7] = tested on: Klebsiella pneumoniae ATCC 8045; assay: In Vitro Antibacterial Activity, agar dilution MIC; details: K. pneumoniae ATCC 8045; BHI agar dilution, 20-24 hours; unit assumed
Protocol: as §1, §2, §3

[8] = tested on: Streptococcus bovis A5169; assay: In Vitro Antibacterial Activity, agar dilution MIC; details: S. bovis A5169; BHI agar dilution, 20-24 hours; unit assumed
Protocol: as §1, §2, §3

[9] = tested on: Enterococcus faecium ATCC 8043; assay: In Vitro Antibacterial Activity, agar dilution MIC; details: E. faecium ATCC 8043; BHI agar dilution, 20-24 hours; unit assumed
Protocol: as §1, §2, §3

Acinetobacter SP CMX 699 = assay: In Vitro Antibacterial Activity, agar dilution MIC; details: BHI agar dilution, 20-24 hours, unit assumed
Protocol: as §1, §2, §3

[10] = tested on: Streptococcus agalactaciae CMX 508; assay: In Vitro Antibacterial Activity, agar dilution MIC; details: S. agalactaciae CMX 508; BHI agar dilution, 20-24 hours; unit assumed
Protocol: as §1, §2, §3

[11] = tested on: Staphylococcus aureus A5177; assay: In Vitro Antibacterial Activity, agar dilution MIC; details: S. aureus A5177; BHI agar dilution, 20-24 hours; unit assumed
Protocol: as §1, §2, §3

Escherichia coli H560 = assay: In Vitro Antibacterial Activity, agar dilution MIC; details: E. coli H560; BHI agar dilution, 20-24 hours; unit assumed
Protocol: as §1, §2, §3

[12] = tested on: Staphylococcus aureus 1775; assay: In Vitro Antibacterial Activity, agar dilution MIC; details: S. aureus 1775; BHI agar dilution, 20-24 hours; unit assumed
Protocol: as §1, §2, §3

Staphylococcus aureus 45 = assay: In Vitro Antibacterial Activity, agar dilution MIC; details: S. aureus 45; BHI agar dilution, 20-24 hours; unit assumed
Protocol: as §1, §2, §3

[13] = tested on: Providencia stuartii CMX 640; assay: In Vitro Antibacterial Activity, agar dilution MIC; details: P. stuartii CMX 640; BHI agar dilution, 20-24 hours; unit assumed
Protocol: as §1, §2, §3

Escherichia coli SS = assay: In Vitro Antibacterial Activity, agar dilution MIC; details: E. coli SS; BHI agar dilution, 20-24 hours; unit assumed
Protocol: as §1, §2, §3

[14] = tested on: Streptococcus pyogenes EES61; assay: In Vitro Antibacterial Activity, agar dilution MIC; details: S. pyogenes EES61; BHI agar dilution, 20-24 hours; unit assumed
Protocol: as §1, §2, §3

[15] = tested on: Staphylococcus aureus CMX 553; assay: In Vitro Antibacterial Activity, agar dilution MIC; details: S. aureus CMX 553; BHI agar dilution, 20-24 hours; unit assumed
Protocol: as §1, §2, §3

[16] = tested on: Pseudomonas aeruginosa BMH10; assay: In Vitro Antibacterial Activity, agar dilution MIC; details: P. aeruginosa BMH10; BHI agar dilution, 20-24 hours; unit assumed
Protocol: as §1, §2, §3

Pseudomonas cepacia 2961 = assay: In Vitro Antibacterial Activity, agar dilution MIC; details: P. cepacia 2961; BHI agar dilution, 20-24 hours; unit assumed
Protocol: as §1, §2, §3

[17] = tested on: Micrococcus luteus ATCC 4698; assay: In Vitro Antibacterial Activity, agar dilution MIC; details: M. luteus ATCC 4698; BHI agar dilution, 20-24 hours; unit assumed
Protocol: as §1, §2, §3

[18] = tested on: Streptococcus pyogenes 930 CONST; assay: In Vitro Antibacterial Activity, agar dilution MIC; details: S. pyogenes 930 CONST; BHI agar dilution, 20-24 hours; unit assumed
Protocol: as §1, §2, §3

[19] = tested on: Staphylococcus aureus ATCC 6538P; assay: In Vitro Antibacterial Activity, agar dilution MIC; details: S. aureus ATCC 6538P; BHI agar dilution, 20-24 hours; unit assumed
Protocol: as §1, §2, §3

[20] = tested on: Pseudomonas aeruginosa K799/WT; assay: In Vitro Antibacterial Activity, agar dilution MIC; details: P. aeruginosa K799/WT; BHI agar dilution, 20-24 hours; unit assumed
Protocol: as §1, §2, §3

[21] = tested on: Micrococcus luteus ATCC 9341; assay: In Vitro Antibacterial Activity, agar dilution MIC; details: M. luteus ATCC 9341; BHI agar dilution, 20-24 hours; unit assumed
Protocol: as §1, §2, §3

[22] = tested on: Pseudomonas aeruginosa K599/61; details: P. aeruginosa K599/61; BHI agar dilution, 20-24 hours; unit assumed
Protocol: as §1, §2, §3

[23] = tested on: Staphylococcus aureus A-5278; assay: In Vitro Antibacterial Activity, agar dilution MIC; details: S. aureus A-5278; BHI agar dilution, 20-24 hours; unit assumed
Protocol: as §1, §2, §3

[24] = tested on: Pseudomonas aeruginosa 2862; assay: In Vitro Antibacterial Activity, agar dilution MIC; details: P. aeruginosa 2862; BHI agar dilution, 20-24 hours; unit assumed
Protocol: as §1, §2, §3

[25] = tested on: Pseudomonas aeruginosa 5263; assay: In Vitro Antibacterial Activity, agar dilution MIC; details: P. aeruginosa 5263; BHI agar dilution, 20-24 hours; unit assumed
Protocol: as §1, §2, §3

Row | SMILES | MIC values [1] [µg/mL] | MIC values [2] [µg/mL] | MIC values [3] [µg/mL] | MIC values (Escherichia coli JUHL) [µg/mL] | MIC values [4] [µg/mL] | MIC values (Escherichia coli KNK 437) [µg/mL] | MIC values [5] [µg/mL] | MIC values (Escherichia coli DC-2) [µg/mL] | MIC values [6] [µg/mL] | MIC values [7] [µg/mL] | MIC values [8] [µg/mL] | MIC values [9] [µg/mL] | MIC values (Acinetobacter SP CMX 699) [µg/mL] | MIC values [10] [µg/mL] | MIC values [11] [µg/mL] | MIC values (Escherichia coli H560) [µg/mL] | MIC values [12] [µg/mL] | MIC values [13] [µg/mL] | MIC values (Escherichia coli SS) [µg/mL] | MIC values [14] [µg/mL] | also measured
1 | Cl.Cl.NCC1COC2(CCN(c3cc4c(cc3F)c(=O)c(C(=O)O)cn4-c3ccc(F)cc3F)C2)O1 (centres unmarked) [Example 159, 1-(2,4-difluorophenyl)-7-(2-aminomethyl-1,4-dioxa-7-azaspiro[4.4]non-7-yl)-6-fluoro-1,4-dihydro-4-oxo-3-quinolinecarboxylic acid dihydrochloride] | 0.78 | 0.78 | 0.39 | 0.39 | 0.2 | 3.1 | 0.39 | 6.2 | 3.1 | 0.39 | 0.78 | 0.78 | 0.78 | 0.78 | 0.39 | 0.2 | 100 | 25 | 0.02 | 0.39 | MIC values (Staphylococcus aureus 45): 0.78 µg/mL; MIC values [15]: 0.78 µg/mL; MIC values [16]: 3.1 µg/mL; MIC values (Pseudomonas cepacia 2961): 50 µg/mL; MIC values [17]: 6.2 µg/mL; MIC values [18]: 0.39 µg/mL; MIC values [19]: 0.2 µg/mL; MIC values [20]: 3.1 µg/mL; MIC values [21]: 12.5 µg/mL; MIC values [22]: 0.39 µg/mL
2 | C[C@@H]1COc2c(N3CCC4(CC3)OCCCO4)c(F)cc3c(=O)c(C(=O)O)cn1c23 [Example 330] | 6.2 (≈ 14.8 µM) | 0.2 (≈ 0.478 µM) | 0.78 (≈ 1.86 µM) | 1.56 (≈ 3.73 µM) | 0.1 (≈ 0.239 µM) | 12.5 (≈ 29.9 µM) | 0.2 (≈ 0.478 µM) | 12.5 (≈ 29.9 µM) | 12.5 (≈ 29.9 µM) | 0.78 (≈ 1.86 µM) | 3.1 (≈ 7.41 µM) | 0.78 (≈ 1.86 µM) | 3.1 (≈ 7.41 µM) | 0.78 (≈ 1.86 µM) | 0.2 (≈ 0.478 µM) | 1.56 (≈ 3.73 µM) | 6.2 (≈ 14.8 µM) | 50 (≈ 119 µM) | 0.01 (≈ 0.0239 µM) | 1.56 (≈ 3.73 µM) | MIC values [23]: 0.1 µg/mL (≈ 0.239 µM); MIC values [15]: 0.2 µg/mL (≈ 0.478 µM); MIC values [16]: 12.5 µg/mL (≈ 29.9 µM); MIC values [24]: > 100 µg/mL; MIC values (Pseudomonas cepacia 2961): 12.5 µg/mL (≈ 29.9 µM); MIC values [17]: 0.78 µg/mL (≈ 1.86 µM); MIC values [25]: > 100 µg/mL; MIC values [18]: 1.56 µg/mL (≈ 3.73 µM); MIC values [19]: 0.1 µg/mL (≈ 0.239 µM); MIC values [20]: 12.5 µg/mL (≈ 29.9 µM); MIC values [21]: 1.56 µg/mL (≈ 3.73 µM); MIC values [22]: 0.78 µg/mL (≈ 1.86 µM)
